Earlier results as cited in article PMC12675671 (Nature Communications, 2025).

System: WT LRRK2

COc1cc(C(=O)N2CCC(N3CCN(C)CC3)CC2)ccc1Nc1ncc2c(n1)N(C)c1ccccc1C(=O)N2C [LRRK2-IN-1]
pIC50 (experimental values), WT: 8.509
